PMC12526156, “Optimization of the Macrocyclic Tetrapeptide [D-Trp]CJ-15,208 to Prevent Stress-Induced Relapse of Cocaine-Seeking Behavior” (Molecules, 2025)
≈ marks a conversion by molar mass, not a printed value. Where two headings read alike, the source gives them in different places. Where a SMILES comes first, the peptide text is derived from it. [ ]: non-standard residue; d: D form. The star is where a group is joined. dPhe(3,5-F2) = N[C@H](Cc1cc(F)cc(F)c1)C(=O)O; For = O=C*

Columns and labels:
[1] = Metabolic stability in mouse liver microsomes; type: in vitro ADME; conditions: mouse liver microsomes, 1 mg protein/mL; for half-life at 1 µM: 1 µM compound, 37 °C, read-out: MLM t1/2; for microsomal CLint at 1 µM: read-out: MLM CLint
Protocol: (§1) Evaluation of the metabolic stability of the macrocyclic tetrapeptides by human and mouse liver microsomes was performed by Curia Global (Buffalo, NY, USA). […]

[2] = Kinetic aqueous solubility; type: physicochemical; conditions: 1% DMSO, pH 7.4
Excerpt: Table A1 Stability of [D-Trp]- and [D-Phe^4]CJ-15,208 and selected analogs in human (HLMs) and mouse liver microsomes (MLMs)^1. and kinetic aqueous solubility. | column: Solubility ^2 / (µM)

[3] = system: C57BL/6J mice; assay: 55 °C warm-water tail-withdrawal assay, antinociception; type: in vivo, mouse; conditions: p.o. dose response; significant only first 10 min at high doses
Protocol: For intracerebroventricular administration, peptides were dissolved in DMSO at a concentration of 20 mM (100 nmol/5 µL), then diluted to test doses in a final vehicle solution of 50%DMSO/50% saline (0.9%). For all other testing (for oral administration), peptides were made fresh each day for testing in a final vehicle solution of 10% DMSO/10% Solutol/80% saline (0.9%).
Intracerebroventricular injections were made directly into the lateral ventricle according to the modified steps detailed previously. The volume of all i.c.v. injections was 5 μL, using a 10 μL Hamilton microliter syringe. The mouse was lightly anesthetized with isoflurane, an incision was made in the scalp, and the injection was made 2 mm lateral and 2 mm caudal to bregma at a depth of 3 mm.
The dose response of analogs 3, 6, 9 and 14 were also assessed following administration of one of up to four additional oral (p.o.) doses (1–30 mg/kg).

[4] = biological target: MOR (Mus musculus, UniProt P42866); assay: 55 °C WWTW assay, antagonism of the MOR-preferring agonist morphine; conditions: 3 or 4 30 mg/kg, p.o., 9 10 mg/kg, 2.5 h before morphine 10 mg/kg, i.p.
[5] = Metabolic stability in human liver microsomes; type: in vitro ADME; conditions: human liver microsomes, 1 mg protein/mL; for half-life at 1 µM: 1 µM compound, 37 °C, read-out: HLM t1/2; for microsomal CLint at 1 µM: read-out: HLM CLint
Protocol: as §1

[6] = system: C57BL/6J mice; assay: Stress-induced reinstatement of extinguished cocaine conditioned place preference; conditions: for fold lower dose for significant reduction of stress-induced reinstatement than [D-Trp]CJ-15,208: vs 60 mg/kg
[7] = biological target: DOR (Mus musculus, UniProt P32300); assay: 55 °C WWTW assay, antagonism of the DOR-selective agonist SNC80; conditions: 3 or 4 30 mg/kg, p.o., 9 10 mg/kg, 2.5 h before SNC-80 100 nmol, i.c.v.
[8] = biological target: T1, hKOR (Homo sapiens, UniProt P41145); assay: KOR cAMP assay using GloSensor-22F, antagonist mode (vs 10 nM U50,488); type: cell-based
Excerpt: A piggy-Bac (PB) transposon/transposase system was utilized to allow for the stable integration of the GloSensor-22F cAMP sensor (Promega, Madison, WI, USA) gene into genomic TTAA sites in Chinese hamster ovary cells already stably expressing the hKOR. The pFastBac hyperPB plasmid vector, which codes for the piggy-Bac transposon/transposase system, was utilized and was a kind gift from Dr. John Lueck. The multicistronic expression cassette developed for our experiments consisted of a CMV promoter driving constitutive expression of GloSensor-22F cAMP sensor, followed by an internal ribosome entry site (IRES) to drive the expression of codon-optimized HygR-P2A-mScarlet (hygromycin resistance gene and mScarlet separated by a 2A self-cleaving peptide element). To clone the expression cassette onto the pFastBac vector, the CMV promoter and GloSensor-22F were PCR amplified from pGloSensor-22F cAMP Plasmid (Promega), the IRES sequence was PCR amplified from pLVX-CMV-Galpha-oA ONE-GO (a gift from Dr. Mikel Garcia-Marcos, Addgene plasmid #189732), the HygR-P2A-mScarlet sequence was a kind gift from Dr. Lueck, and a bGH-poly(A) termination sequence was PCR amplified from pcDNA3.1(+). The pFastBac vector was linearized via overnight digestion with CspCI at 37 °C, which cuts between two inverted terminal repeat (ITR) sequences, and the corresponding backbone and all PCR fragments were gel purified and assembled via Gibson assembly using the Gibson Assembly MasterMix (New England Biolabs, Ipswich, MA, USA). The resulting pFastBac CMV GloSensor-22F IRES HygR-P2A-mScarlet bGH plasmid was transformed into NEB Stable Competent E. coli (New England Biolabs), miniprepped using the E.Z.N.A. Plasmid DNA Mini Kit (Omega Bio-Tek, Norcross, GA, USA), and sequence verified by nanopore whole-plasmid sequencing (Eurofins Genomics, Louisville, KY, USA).
3.0 × 10^6 hKOR-CHO cells were plated on a 6 cm dish and incubated for four h at 37 °C and 5% CO2 in DMEM (Corning Mediatech, Manassas, VA, USA) supplemented with 5% FBS (Corning Mediatech), 1% Penicillin/Streptomycin (Gibco, Waltham, MA, USA). The cells were then transfected with 2.0 μg pFastBac CMV GloSensor-22F IRES HygR-P2A-mScarlet bGH using PEI as a transfection reagent. The following day, transfected cells were reseeded onto a 10 cm dish at a density of 5.0 × 10^5 cells and 600 μg/mL hygromycin B (Gold Bio, St. Louis, MO, USA) was added to the culture media. Cells were cultured under selection antibiotics for seven days, and the selection process was monitored by the increase in abundance of mScarlet positive cells via epifluorescence microscopy.
Following the selection period, KOR-CHO-GLO cells were maintained at 37 °C and 5% CO2 in DMEM supplemented with 5% FBS, 1% Penicillin/Streptomycin and 300 μg/mL hygromycin B to reduce the likelihood of CMV promoter silencing. On the day of the assay, cells were detached with 0.05% trypsin (Gibco) and counted, then centrifuged (1000× g, 5 min) and resuspended in assay buffer (1xPBS, 0.1% glucose, 0.5 mM MgCl2) containing 4 mM D-luciferin substrate (Gold Bio) at approximately 2 million cells/mL. 25 μL of cells (~50,000/well) were seeded onto poly L-lysine-coated white 96-well flat bottom plates (Greiner Bio-One, Kremsmünster, Austria)) and returned to the incubator for 60 min. Following incubation, cells were allowed to equilibrate to room temperature protected from light (10–15 min). Initial luminescence readings (at least 10 cycles) were collected for each well using a FLUOstar Omega v.6.2 plate reader (BMG Labtech, Ortenberg, Germany), after which the plate was removed. Prepared 4x treatments of drug (25 μL) were added to appropriate wells followed by 50 μL of 20 μM forskolin (AmBeed, Buffalo Grove, IL, USA) before the plate was returned to the reader and luminescence measured until final plateau levels were achieved (20–30 min). Assays were performed in duplicate and repeated at least three times.

[9] = biological target: T1, hKOR; assay: KOR cAMP assay using GloSensor-22F, agonist mode (KOR-CHO-GLO cells); type: cell-based; conditions: read-out: KOR Efficacy (%)
[10] = biological target: T1, hKOR; assay: Competition binding, [3H]U69,593, hKOR-CHO membranes
[11] = biological target: CNS KORs (Mus musculus, UniProt P33534); assay: 55 °C WWTW assay, antagonism of centrally administered U50,488 (30 nmol, i.c.v.); conditions: 2.5 h pretreatment; for antagonism of CNS KORs: 30 mg/kg, p.o. (9: 10 mg/kg, p.o.)
[12] = biological target: T2, human MOR (Homo sapiens, UniProt P35372); assay: biochemical; type: binding
T2 construct: expressed in transfected cells

[13] = system: C57BL/6J mice; parameters: method as in PMID 23425081; conditions: cited from earlier work
[14] = biological target: KOR; parameters: method as in PMID 37765026; conditions: cited from earlier work
[15] = [3H]U69,593, human KOR, ± S.E.M., three independent experiments, read-out: KOR Ki
[16] = [3H]DAMGO, human MOR, ± S.E.M., three independent experiments, read-out: MOR Ki
[17] = p.o. once daily for two days, 1.5 h prior to FSS

| Compound | half-life at 1 µM [1] | microsomal CLint at 1 µM [1] | solubility kinetic [2] | antinociception [3] | effect on antinociceptive effects of morphine [4] | half-life at 1 µM [5] | microsomal CLint at 1 µM [5] | effect on antinociceptive effects of SNC80 [7] | IC50 [8] | Emax at 10 µM [9] | Selectivity (MOR Ki/KOR Ki) ([10]; MOR Ki/KOR Ki) | Ki [10, 15] | antagonism of CNS KORs [11] | Ki [12, 16] | doses not preventing stress-induced reinstatement of cocaine CPP [6, 17] | fold lower dose for significant reduction of stress-induced reinstatement than [D-Trp]CJ-15,208 ([6]; p.o.) | doses not producing significant antagonism of CNS KORs [11] | further results |
| --- | --- | --- | --- | --- | --- | --- | --- | --- | --- | --- | --- | --- | --- | --- | --- | --- | --- | --- |
| O=C1N[C@H](Cc2cc(F)cc(F)c2)C(=O)N[C@@H](Cc2ccccc2)C(=O)N2CCC[C@@H]2C(=O)N[C@H]1Cc1ccccc1 [Analog 9, [D-Phe(3,5-F2)^4]CJ-15,208] (cyclo(F[dP]F[dPhe(3,5-F2)])) | 1.2 min | 600 µL/min/mg | 8.6 µM (≈ 4.94 µg/mL) | < 20% | no significant effect | 2.9 min | 237 µL/min/mg | no significant effect | 0.32 ± 0.049 µM | 14 ± 2.4% | 12 | 0.025 ± 0.0043 µM | significant antagonism | 0.29 ± 0.027 µM | – | – | – | reduction of stress-induced reinstatement of cocaine CPP ([6]; 10 mg/kg, p.o.): not significant |
| O=C1N[C@H](Cc2c[nH]c3ccccc23)C(=O)N[C@@H](Cc2ccccc2)C(=O)N2CCC[C@@H]2C(=O)N[C@H]1Cc1ccccc1 [Analog 1, cyclo[Phe-D-Pro-Phe-D-Trp]] (cyclo(F[dP]F[dW])) | 2.6 min | 269 µL/min/mg | 23 µM (≈ 13.3 µg/mL) | – | – | 5.5 min | 127 µL/min/mg | – | 0.066 ± 0.011 µM | 16 ± 2.4% | – | – | – | – | – | – | – | dose required to prevent stress-induced reinstatement [13]: 60 mg/kg, p.o.; Ki [14]: 0.0218 µM; Ki [10]: 0.0069 ± 0.0011 µM; Selectivity (MOR Ki/KOR Ki) [10]: 8; Ki [12]: 0.058 ± 0.0075 µM |
| O=Cn1cc(C[C@H]2NC(=O)[C@H](Cc3ccccc3)NC(=O)[C@H]3CCCN3C(=O)[C@H](Cc3ccccc3)NC2=O)c2ccccc21 [Analog 3, [D-Trp(formamide)]CJ-15,208] (cyclo(F[dP]F[dW](For))) | 1.1 min | 607 µL/min/mg | 4.6 µM (≈ 2.79 µg/mL) | < 20% | no significant effect | 2.8 min | 244 µL/min/mg | no significant effect | 0.049 ± 0.0054 µM | 9.2 ± 4.9% | 41 | 0.0022 ± 0.00015 µM | significant antagonism | 0.09 ± 0.014 µM | 10 mg/kg | 2 fold | 1–10 mg/kg, p.o. | doses preventing stress-induced reinstatement of cocaine CPP [6, 17]: 30 mg/kg; doses giving significant antagonism of CNS KORs [11]: 30 mg/kg, p.o. |
| O=C1N[C@H](Cc2ccccc2)C(=O)N[C@@H](Cc2ccccc2)C(=O)N2CCC[C@@H]2C(=O)N[C@H]1Cc1ccccc1 [Analog 4, cyclo[Phe-D-Pro-Phe-D-Phe]] (cyclo(F[dP]F[dF])) | 1.6 min | 447 µL/min/mg | 24 µM (≈ 12.9 µg/mL) | < 20% | no significant effect | 4.2 min | 165 µL/min/mg | no significant effect | 0.46 ± 0.1 µM | 19 ± 8.1% | 11 | 0.024 ± 0.00097 µM | significant antagonism | 0.27 ± 0.023 µM | 3 mg/kg | 6 fold | 3 mg/kg, p.o. | fold lower KOR affinity than [D-Trp]CJ-15,208 (1) [10]: 3.5 fold |
